According to US8304418B2, “Pyrazolopyrimidinone kinase inhibitor” (Agennix AG, priority 2007, dated 2012):
Converted amounts (≈) assume the structure as drawn. “And” between values parts separate entries of the source, which are not always exact repeats. Equal values may be shown once. Read-outs that look alike come from different tables or passages of the source.

Columns and labels:
[1] = Solubility assay at pH 7.4; type: physicochemical; details: pH 7.4, aqueous buffer
Experimental: (§1) The assays used for determining the properties of the kinase inhibitors were performed in accordance with standard procedures well known to those skilled in the art. For example, assays for determining inhibitory activity on CDKs or in cellular assays are described in WO 00/218962, WO 2005/026129, and WO 2005/063765. Solubility assays at pH 7.4 were essentially performed as described by Avdeef, A. in Pharmacokinetic Optimization in Drug Research; Testa, B.; van de Waterbeemd, H.; Folkers, G.; Guy, R. Eds.; Wiley-VHC: Zurich, 2001; pp 305-326. PAMPA permeability assays at pH 7.4 were essentially performed as described in Kansy et al., J. Med. Chem. 41: 1007-10, 1998.

CDK4 = CDK4 (Homo sapiens, UniProt P11802); assay: Biochemical CDK4 inhibition assay
Experimental: as §1

[2] = test system: human A2780 ovarian tumor cells
Experimental: Compound P (as hydrochloric acid salt) was formulated in 30% PEG300/70% water, and Compound I (as hydrochloric acid salt) was formulated in 20% PEG300/80% D5W (5% dextrose water) and administered by oral gavage twice every day for 10 days (bid×10), while the Cytoxan control which was administered i.p. in saline every two days over a period of 10 days (q2 d×5): […]

[3] = test system: cell lines A2780, HCT-116, HT-29, HepG2, NCI/ADR-RES, OVCAR3, H460, IMR-90, T98G, A549 among others; assay: Inhibition of proliferation in a set of cancer-model cell lines; type: cell-based; details: read-out: IC50 values, inhibition of proliferation (range over cell lines)
Experimental: as §1

[4] = test system: human A2780 ovarian tumor cells; remark: listed apart in the source
Experimental: Xenograft Tumor-Models: 100 athymic nu/nu female mice (6-8 weeks old) from CRL were allowed to acclimate for 4 days. […] The 3rd passage of cells with approximate 90% confluence was used for these experiments. Briefly, on Day 0, mice were inoculated with 0.1 ml (total 5×10^6 cells) of the respective cell-type as a cell suspension (50×10^6 cells/ml) by subcutaneous injection into the fat pad area near the mammary gland under light anesthesia. When the average tumor weight in all mice reached over 100 mg (day 10), 80 animals with an average tumor size of 130 mg were selected and were randomly divided into 8 groups.
A 20 G gavage needle was used for the oral treatment.
Tumor growth and body weight were monitored and recorded three times a week. Tumors were measured by determining the length and width of the tumor with a digital caliper. Tumor weight was estimated using the following formula: Tumor Weight (mg)=(w^2×1)×0.52 where w=width and l=length in mm of the tumor.
Experimental treatment may cause partial regression (PR) or complete regression (CR) of tumors. PR is defined when the tumor size is 50% or less than the starting (day 1) size but greater than 0.0 mg for three consecutive measurements during the course of the study. CR occurs when there is no measurable tumor mass for three consecutive measurements. Cures are defined when CR are maintained until the completion of the experiment.
Mice were sacrificed when their tumors reached the 1000 mm^3 endpoint volume. Treatment efficacy was determined as Log Cell Kill (LCK).
Toxic deaths are defined as deaths caused by compound treatment and not by advanced disease state. […] Non-tumor related deaths after this point are recorded, but not considered toxic deaths.
Briefly, the empirical distributions of T and Td were derived from B=1000 realisations of random selection of n individual animals with replacement from the set i=1, . . . , n of the appropriate group of mice containing n evaluable animals, estimating the mean tumor size for such selection of animals for each time-point, and linear regression analysis from a semi-log plot of such averages against time. Dead mice and mice with no measurable tumor size were treated as missing data and were ignored when calculating the average.

A2780 = assay: Cell proliferation, A2780; type: cell-based; details: Homo sapiens
Experimental: as §1
When compared to IC50s of cellular proliferation by compound I, (as determined by the methods described earlier), the corresponding IC50 for cellular inhibition of CDK9-dependent RNAPII phosphorylation is approximately similar.

Chain of CDK4 (P11802 whole entry): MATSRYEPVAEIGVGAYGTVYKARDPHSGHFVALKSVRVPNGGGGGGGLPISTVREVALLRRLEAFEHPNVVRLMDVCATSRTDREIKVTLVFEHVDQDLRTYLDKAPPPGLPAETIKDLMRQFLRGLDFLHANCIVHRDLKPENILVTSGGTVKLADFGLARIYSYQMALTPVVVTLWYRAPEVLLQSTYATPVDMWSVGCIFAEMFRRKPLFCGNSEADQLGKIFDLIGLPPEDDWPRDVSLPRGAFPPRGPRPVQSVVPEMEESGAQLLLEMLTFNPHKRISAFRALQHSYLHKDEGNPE
Chain of CDK4 (P24385 whole entry partner): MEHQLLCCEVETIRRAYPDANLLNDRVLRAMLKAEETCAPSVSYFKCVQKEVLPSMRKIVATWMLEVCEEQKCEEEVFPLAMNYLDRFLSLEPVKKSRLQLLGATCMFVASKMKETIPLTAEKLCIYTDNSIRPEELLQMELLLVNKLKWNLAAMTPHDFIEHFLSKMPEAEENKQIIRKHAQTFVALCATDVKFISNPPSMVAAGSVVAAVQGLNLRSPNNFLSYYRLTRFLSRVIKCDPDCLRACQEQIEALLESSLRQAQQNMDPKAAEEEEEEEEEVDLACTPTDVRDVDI

CC(C)c1nn(-c2c(Cl)cncc2Cl)c2nc(Cc3ccc(CN4CCCC4)c(O)c3)[nH]c(=O)c12 [Compound I, 1-(3,5-dichloropyridin-4-yl)-6-(3-hydroxy-4-pyrrolidinomethyl-phenyl)methyl-3-isopropyl-pyrazolo[3,4-d]pyrimidin-4-one]
solubility [1]: ~390 µM (≈ 200 µg/mL) | IC50 (CDK4): ~50 nM | Toxic Mortality ([2]; 15 [14] mg/kg po bidx10, N=10): 0 | Max % TGI (d) ([2]; 15 [14] mg/kg po bidx10, day 10): 47 (10) % | Max % BW Loss (d) ([2]; 15 [14 free base] mg/kg po bidx10, HCl salt, day 6): 0 (6) % | LCK ± CI (95%) (Td: 2.1 d) ([2]; 32 [30] mg/kg po bidx10): 1.72 ± 0.89 and 1.72 | Toxic Mortality ([2]; 32 [30] mg/kg po bidx10, N=10): 0 | Max % TGI (d) ([2]; 32 [30] mg/kg po bidx10, day 13): 81 (13) % | Max % BW Loss (d) ([2]; 32 [30] mg/kg po bidx10, day 15): 4.8 (15) % | LCK ± CI (95%) (Td: 2.1 d) ([2]; 48 [45] mg/kg po bidx10): 3.38 ± 0.81 and 3.38 | Cure ([2]; 48 [45] mg/kg po bidx10, N=10): 3 | Toxic Mortality ([2]; 48 [45] mg/kg po bidx10, N=10): 0 | Max % TGI (d) ([2]; 48 [45] mg/kg po bidx10, day 13): 97 (13) % | Max % BW Loss (d) ([2]; 48 [45] mg/kg po bidx10, day 15): 15.9 (15) % | CR ([2]; 48 [45] mg/kg po bidx10, mice with complete regression, N=10): 1 | PR ([2]; 48 [45] mg/kg po bidx10, mice with partial regression, N=10): 5 | IC50 [3]: 10 to 800 nM | LCK ± CI (95%) (Td: 1.7 d) ([4]; 32 [30] mg/kg po qdx10): 0.44 ± 0.24 and 0.44 | Toxic Mortality ([4]; 32 [30] mg/kg po qdx10, N=10): 0 | Max % TGI (d) ([4]; 32 [30] mg/kg po qdx10, day 11): 52.2 (11) % | LCK ± CI (95%) (Td: 1.7 d) ([4]; 63 [59] mg/kg po qdx10): 0.93 ± 0.39 and 0.93 | Toxic Mortality ([4]; 63 [59] mg/kg po qdx10, N=10): 0 | Max % TGI (d) ([4]; 63 [59] mg/kg po qdx10, day 11): 67.3 (11) % | LCK ± CI (95%) (Td: 1.7 d) ([4]; 95 [89] mg/kg po qdx7): 2.16 ± 0.44 and 2.16 | Toxic Mortality ([4]; 95 [89] mg/kg po qdx7): 1/10 | Max % TGI (d) ([4]; 95 [89] mg/kg po qdx7, day 11): 86.2 (11) % | IC50 (A2780): ~0.1 µM
